Experiments:
[1] = compound: C[C@@H](Nc1cc(F)cc(F)c1)c1cc(C(=O)N(C)C)cc2c(=O)cc(N3CCOCC3)oc12 [AZD8186]
In short: (§1)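 Cancer cell lines were seeded in 1536-well plates in 7.5 μl DMEM/F12 or RPMI with 10% FBS, held 24 hours at 37°C and 5% CO2, then dosed for 72 hours (final DMSO typically 0.2%). Viability was read by CellTiter-Glo 2.0 luminescence and scaled between blank-well and DMSO-well means. The single-agent IC50 comes from dose responses fitted to a two-parameter logistic curve with a non-linear mixed effects model.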

[2] = compound: Cc1cc2ncnn2cc1Nc1ncc2c(n1)n(C1CCOCC1)c(=O)n2C [AZD7648]; details: max 10 µM
In short: as §1

[3] = compound: COc1cc2ncnc(Nc3ccc(F)c(Cl)c3)c2cc1OCCCN1CCOCC1 [Gefitinib]; details: max 10 µM
In short: as §1

[4] = compound: Cc1nc(-c2cn3c(n2)-c2ccc(-c4cnn(C(C)(C)C(N)=O)c4)cc2OCC3)n(C(C)C)n1 [Taselisib]; details: max 10 µM
In short: as §1

[5] = compound: COc1cc(Nc2ncc3c(n2)-c2ccc(Cl)cc2C(c2c(F)cccc2OC)=NC3)ccc1C(=O)O [Alisertib]; details: max 10 µM
In short: as §1

[6] = compound: CC(C)n1c(=O)n(C)c2cnc3cc(F)c(-c4ccc(OCCCN5CCCCC5)nc4)cc3c21 [AZD1390]; details: max 0.3 µM
In short: as §1

[7] = compound: COc1cccc2c1C(=O)c1c(O)c3c(c(O)c1C2=O)C[C@@](O)(C(=O)CO)C[C@@H]3O[C@H]1C[C@H](N)[C@H](O)[C@H](C)O1 [Doxorubicin]; details: max 1 µM
In short: as §1

[8] = compound: CCN(CCO)CCCOc1ccc2c(Nc3cc(CC(=O)Nc4cccc(F)c4)[nH]n3)ncnc2c1 [AZD2811]; details: max 1 µM
In short: as §1

[9] = compound: CC1=C(C(=CC=C1)Cl)NC(=O)C2=CN=C(S2)NC3=CC(=NC(=N3)C)N4CCN(CC4)CCO [Dasatinib]; details: max 2 µM
In short: as §1

[10] = compound: C=CCn1c(=O)c2cnc(Nc3ccc(N4CCN(C)CC4)cc3)nc2n1-c1cccc(C(C)(C)O)n1 [AZD1775]; details: max 3 µM
In short: as §1

[11] = compound: CS(=O)(=O)CCNCc1ccc(-c2ccc3ncnc(Nc4ccc(OCc5cccc(F)c5)c(Cl)c4)c3c2)o1 [Lapatinib]; details: max 10 µM
In short: as §1

[12] = compound: COc1cc([C@@H]2c3cc4c(cc3[C@@H](O[C@@H]3O[C@@H]5CO[C@@H](C)O[C@H]5[C@H](O)[C@H]3O)[C@H]3COC(=O)[C@H]23)OCO4)cc(OC)c1O [Etoposide]; details: max 10 µM
In short: as §1

[13] = compound: O=C(c1cc(Cc2n[nH]c(=O)c3ccccc23)ccc1F)N1CCN(C(=O)C2CC2)CC1 [Olaparib]; details: max 10 µM
In short: as §1

[14] = compound: Cc1c2c(nn1C)CSCc1cc(n(C)n1)CSc1cc(c3ccccc3c1)OCCCc1c(C(=O)O)n(C)c3c-2c(Cl)ccc13 [AZD5991]; details: max 1 µM
In short: as §1

[15] = compound: CC1=CN2[C@@H](C1)C=NC3=CC(=C(C=C3C2=O)OC)OCCCCCOC4=C(C=C5C(=C4)N=C[C@@H]6CC(=CN6C5=O)C)OC [SG3199]; details: max 0.001 µM
In short: as §1

[16] = compound: CC1(C)CCC(CN2CCN(c3ccc(C(=O)NS(=O)(=O)c4ccc(NCC5CCOCC5)c([N+](=O)[O-])c4)c(Oc4cnc5[nH]ccc5c4)c3)CC2)=C(c2ccc(Cl)cc2)C1 [Venetoclax]; details: max 1 µM
In short: as §1

[17] = compound: CN(C)CCCOc1ccc(-c2ccc3ncc4c(c3c2)n(C2CCOCC2)c(=O)n4C)cn1 [AZD0156]; details: max 3 µM
In short: as §1

[18] = compound: CC(=O)O[C@H]1C(=O)[C@@]2(C)[C@H]([C@H](OC(=O)c3ccccc3)[C@]3(O)C[C@H](OC(=O)[C@H](O)[C@@H](NC(=O)c4ccccc4)c4ccccc4)C(C)=C1C3(C)C)[C@]1(OC(C)=O)CO[C@@H]1C[C@@H]2O [Paclitaxel]; details: max 3 µM
In short: as §1

[19] = compound: Cn1cnc2c(F)c(Nc3ccc(Br)cc3Cl)c(C(=O)NOCCO)cc21 [Selumetinib]; details: max 10 µM
In short: as §1

[20] = compound: CC(=O)c1c(C)c2cnc(Nc3ccc(N4CCNCC4)cn3)nc2n(C2CCCC2)c1=O [Palbociclib]; details: max 10 µM
In short: as §1

[21] = compound: O=C(Nc1ccc2[nH]nc(-c3ccncc3)c2c1)[C@@H]1CCN(CC(=O)N2CCN(c3ccc(-c4ncccn4)cc3)CC2)C1; details: max 5 µM
In short: as §1

[22] = compound: COc1nnc2ccc(N3CCC(c4ccc(OCCN5CCN(C)C(=O)[C@H]5C)cc4)CC3)nn12 [AZD5153]; details: max 1 µM
In short: as §1

[23] = compound: Nc1ccn([C@@H]2O[C@H](CO)[C@@H](O)C2(F)F)c(=O)n1 [Gemcitabine]; details: max 0.3 µM
In short: as §1

[24] = compound: CC(=O)Nc1cccc(-n2c(=O)n(C3CC3)c(=O)c3c(Nc4ccc(I)cc4F)n(C)c(=O)c(C)c32)c1 [Trametinib]; details: max 1 µM
In short: as §1

[25] = compound: C[C@@H](Oc1cc(-c2cnn(C3CCNCC3)c2)cnc1N)c1c(Cl)ccc(F)c1Cl [Crizotinib]; details: max 10 µM
In short: as §1

[26] = compound: COc1cccc(OCCCN)c1-c1cc(Nc2cnc(C#N)cn2)n[nH]1 [Prexasertib]; details: max 1 µM
In short: as §1

[27] = compound: C1CC(C1)(C(=O)[O-])C(=O)[O-].N.N.[Pt+2] [Carboplatin]; details: max 10 µM
In short: as §1

[28] = compound: O=c1[nH]cc(F)c(=O)[nH]1 [5-Fluorouracil]; details: max 20 µM
In short: as §1

[29] = compound: CCc1c2c(nc3ccc(O)cc13)-c1cc3c(c(=O)n1C2)COC(=O)[C@]3(O)CC [SN-38]; details: max 0.3 µM
In short: as §1

[30] = compound: CN(CC[C@H](CSC1=CC=CC=C1)NC2=C(C=C(C=C2)S(=O)(=O)NC(=O)C3=CC=C(C=C3)N4CCC(CC4)[C@H](C5=CC=CC=C5C6=CC=C(C=C6)Cl)O)S(=O)(=O)C(F)(F)F)CCO [AZD4320]; details: max 1 µM
In short: as §1

[31] = compound: NC1(c2ccc(-c3nc4ccn5c(=O)[nH]nc5c4cc3-c3ccccc3)cc2)CCC1 [MK-2206]; details: max 10 µM
In short: as §1

[32] = compound: C[C@@H]1COCCN1C2=NC(=NC(=C2)C3(CC3)[S@](=N)(=O)C)C4=C5C=CNC5=NC=C4 [AZD6738]; details: max 10 µM
In short: as §1

[33] = compound: C1CN(CCC1(C(=O)N[C@@H](CCO)C2=CC=C(C=C2)Cl)N)C3=NC=NC4=C3C=CN4 [AZD5363]; details: max 10 µM
In short: as §1

[34] = compound: C[C@@H](c1ccc2nccn2c1)n1nnc2ncc(-c3cnn(C)c3)nc21 [Savolitinib]; details: max 1 µM
In short: as §1

[35] = compound: N#Cc1cnc(Nc2cc(NC[C@H]3CNCCO3)c(C(F)(F)F)cn2)cn1 [SRA737]; details: max 10 µM
In short: as §1

[36] = compound: C1CN(CCC1(C(=O)N[C@@H](CCO)C2=CC=C(C=C2)Cl)N)C3=NC=NC4=C3C=CN4 [Capivasertib]; details: max 10 µM
In short: as §1

Cell Line	IC50, cell viability 72 h ([1]; max 10 µM) [µM]	IC50, cell viability 72 h [2] [µM]	IC50, cell viability 72 h [3] [µM]	IC50, cell viability 72 h [4] [µM]	IC50, cell viability 72 h [5] [µM]	IC50, cell viability 72 h [6] [µM]	IC50, cell viability 72 h [7] [µM]	IC50, cell viability 72 h [8] [µM]	IC50, cell viability 72 h [9] [µM]	IC50, cell viability 72 h [10] [µM]	IC50, cell viability 72 h [11] [µM]	IC50, cell viability 72 h [12] [µM]	IC50, cell viability 72 h [13] [µM]	IC50, cell viability 72 h [14] [µM]	IC50, cell viability 72 h [15] [µM]	IC50, cell viability 72 h [16] [µM]	IC50, cell viability 72 h [17] [µM]	IC50, cell viability 72 h [18] [µM]	IC50, cell viability 72 h [19] [µM]	IC50, cell viability 72 h [20] [µM]	IC50, cell viability 72 h [21] [µM]	IC50, cell viability 72 h [22] [µM]	IC50, cell viability 72 h [23] [µM]	IC50, cell viability 72 h [24] [µM]	IC50, cell viability 72 h [25] [µM]	IC50, cell viability 72 h [26] [µM]	IC50, cell viability 72 h [27] [µM]	IC50, cell viability 72 h [28] [µM]	IC50, cell viability 72 h [29] [µM]	IC50, cell viability 72 h [30] [µM]	IC50, cell viability 72 h [31] [µM]	IC50, cell viability 72 h [32] [µM]	IC50, cell viability 72 h [33] [µM]	IC50, cell viability 72 h [34] [µM]	IC50, cell viability 72 h [35] [µM]	IC50, cell viability 72 h ([1]; max 3 µM) [µM]	IC50, cell viability 72 h [36] [µM]
HSC-2 (Oral Cavity Carcinoma)	> 10	> 10	3.96	0.171	2.4	> 0.3	0.367	> 1	0.176	2.13	4.01	4.42	> 10	0.439	> 0.001	> 1	> 3	0.00331	> 10	> 10	> 5	0.238	0.0182	> 1	> 10	0.124	> 10	> 20	0.00535	> 1	> 10	8.5	> 10	> 1	> 10	–	–
EW-3 (Ewing's Sarcoma)	> 10	> 10	> 10	> 10	8.57	> 0.3	0.0867	> 1	> 2	2.3	> 10	1.1	> 10	0.47	> 0.001	0.401	> 3	0.0175	> 10	> 10	> 5	0.496	0.00811	> 1	9.57	0.183	> 10	> 20	0.00207	0.0276	> 10	2.03	> 10	> 1	> 10	–	–
SCC-9 (Oral Cavity Carcinoma)	> 10	> 10	> 10	2.14	> 10	> 0.3	> 1	> 1	1.15	2.83	5.06	> 10	> 10	> 1	> 0.001	> 1	> 3	0.284	> 10	> 10	> 5	> 1	> 0.3	> 1	> 10	> 1	> 10	> 20	> 0.3	> 1	> 10	> 10	> 10	> 1	> 10	–	–
NCI-N87 (Gastric Carcinoma)	> 10	> 10	1.96	0.218	> 10	> 0.3	0.423	> 1	1.85	1.69	0.077	6.74	> 10	> 1	> 0.001	> 1	> 3	0.43	> 10	> 10	> 5	> 1	0.0887	0.404	> 10	0.0755	> 10	> 20	0.0598	> 1	6.77	4.36	4.23	> 1	> 10	–	–
PF-382 (T-Lymphoblastic Leukemia)	–	> 10	> 10	2.78	0.391	> 0.3	0.0858	0.0344	0.207	0.331	> 10	–	> 10	> 1	> 0.001	> 1	> 3	–	> 10	2.08	–	0.079	–	> 1	4.07	0.0172	–	–	0.00365	0.175	1.5	3.22	–	> 1	–	> 3	2.25

Reference: the supplement of paper PMC11061612
